Data reported in patent US6602878B1, “Acylquanidine derivatives, method for preparing same, application as medicines and pharmaceutical compositions containing them” (Aventis Pharma S.A., priority 1998, dated 2003).

Molecular target: human αvβ3 receptor (Homo sapiens, UniProt P05106+P06756)
Assay: Kistrin/Vitronectin Receptor (αvβ3) ELISA Test
Format: binding
Details: kistrin-coated plates, 3 hours at ambient temperature, OD 450 nm, read-out: K/VnR IC50
Procedure: Kistrin/Vitronectin Receptor (αvβ3) ELISA Test
96-well MaxiSorp plates are coated overnight at […] with 100 μl of Kistrin at 1 μg/ml (dilution in coating buffer: 0.05 M (carbonate)/NaOH pH 9.6. The next day, the wells are emptied and the ligands (kistrin) are then fixed (fixation buffers: PBS containing 0.5% BSA (pH=7.4)) for 1 hour at ambient temperature under gentle agitation of 125 rpm. The wells are washed six times (washing buffer: PBS containing 0.05% Tween 20 (pH 7.7) then the following is added per well and in this order:
40 μl of incubation buffer
10 μl of the dilution of the product to be tested (the products are diluted in a 50:50 DMSO/water mixture)
50 μl of human αvβ3 receptor (cf Pytel et al. Methods Enzymol. (1987) 144 (Dilution in incubation buffer, adapted according to the batch of receptor and according to the ligand). The ligand, the αvβ3 receptor and the products to be studied are incubated for 3 hours at ambient temperature with gentle agitation of 125 rpm.
The wells are again washed six times, then incubated for 2 hours at ambient temperature with gentle agitation of 125 rpm, in the presence of 100 μl of anti-receptor antibody coupled to a peroxidase (The 4B12-HRP antibody is diluted in incubation buffer (50 mM TRIS pH 7.4; 0.5% BSA; 0.05% Tween 20; 1 mM MnCl2; 50 μM CaCl2; 50 μM MgCl2; 100 mM NaCl). The dilution is to be adapted according to the batch of receptor.
The wells are then washed six times before measurement of the ligand-receptor bond is carried out using a peroxidase developer kit (TBM Microwell Peroxidase Substrate System Kirkegaard; Ref cat 50-76-00).
This kit contains a flask A of substrate (3,3′,5,5′-tetramethylebenzidine at 0.4 g/l) and a flask B (H2O2 to 0.02% in Citrate/Citric acid). Extemporaneously, one volume of A is mixed with one volume of B, then the reaction mixture is distributed at a rate of 100 μl/wells.
The enzymatic reaction develops between 6 to 10 minutes for Kistrin/αvβ3 then its development is stopped by the addition of 100 μl of 1 M phosphoric acid. The optical density is determined at 450 nm.
Expression of the Results
The following curve is plotted: the bond percentage as a function of the logarithm of each concentration of the tested product.
For each product IC50 is determined according to the following formula:
B0=Maximum bond in the absence of any product
Bmin=Minimum bond in the presence of the highest

Sequence of human αvβ3 receptor (P06756 31-889 limits assumed): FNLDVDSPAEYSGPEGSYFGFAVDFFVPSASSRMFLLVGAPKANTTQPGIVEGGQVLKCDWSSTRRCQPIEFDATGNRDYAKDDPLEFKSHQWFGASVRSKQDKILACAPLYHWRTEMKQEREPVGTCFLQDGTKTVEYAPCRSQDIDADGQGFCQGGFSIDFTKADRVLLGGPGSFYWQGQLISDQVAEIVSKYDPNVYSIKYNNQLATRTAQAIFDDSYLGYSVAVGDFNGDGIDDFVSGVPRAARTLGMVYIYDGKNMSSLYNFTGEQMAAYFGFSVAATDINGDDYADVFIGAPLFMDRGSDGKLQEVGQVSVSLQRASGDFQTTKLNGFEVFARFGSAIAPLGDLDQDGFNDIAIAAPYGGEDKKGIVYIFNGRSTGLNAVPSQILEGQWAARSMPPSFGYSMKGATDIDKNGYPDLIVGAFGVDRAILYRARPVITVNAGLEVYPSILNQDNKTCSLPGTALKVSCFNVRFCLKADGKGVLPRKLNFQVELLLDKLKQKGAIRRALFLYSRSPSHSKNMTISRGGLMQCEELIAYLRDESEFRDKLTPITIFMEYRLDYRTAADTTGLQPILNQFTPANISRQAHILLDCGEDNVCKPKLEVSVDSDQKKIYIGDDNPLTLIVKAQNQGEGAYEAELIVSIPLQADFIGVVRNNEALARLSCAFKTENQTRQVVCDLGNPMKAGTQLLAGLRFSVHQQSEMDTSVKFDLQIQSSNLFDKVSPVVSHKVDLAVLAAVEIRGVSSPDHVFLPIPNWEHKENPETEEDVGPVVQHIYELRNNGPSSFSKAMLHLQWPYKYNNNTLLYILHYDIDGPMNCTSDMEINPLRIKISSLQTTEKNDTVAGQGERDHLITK
Sequence of human αvβ3 receptor (P06756 891-1048 partner limits assumed): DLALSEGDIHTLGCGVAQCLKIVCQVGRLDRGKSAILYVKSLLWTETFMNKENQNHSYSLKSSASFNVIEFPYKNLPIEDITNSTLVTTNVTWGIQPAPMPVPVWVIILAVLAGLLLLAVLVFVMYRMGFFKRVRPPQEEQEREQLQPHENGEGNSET
Sequence of human αvβ3 receptor (P05106 27-788): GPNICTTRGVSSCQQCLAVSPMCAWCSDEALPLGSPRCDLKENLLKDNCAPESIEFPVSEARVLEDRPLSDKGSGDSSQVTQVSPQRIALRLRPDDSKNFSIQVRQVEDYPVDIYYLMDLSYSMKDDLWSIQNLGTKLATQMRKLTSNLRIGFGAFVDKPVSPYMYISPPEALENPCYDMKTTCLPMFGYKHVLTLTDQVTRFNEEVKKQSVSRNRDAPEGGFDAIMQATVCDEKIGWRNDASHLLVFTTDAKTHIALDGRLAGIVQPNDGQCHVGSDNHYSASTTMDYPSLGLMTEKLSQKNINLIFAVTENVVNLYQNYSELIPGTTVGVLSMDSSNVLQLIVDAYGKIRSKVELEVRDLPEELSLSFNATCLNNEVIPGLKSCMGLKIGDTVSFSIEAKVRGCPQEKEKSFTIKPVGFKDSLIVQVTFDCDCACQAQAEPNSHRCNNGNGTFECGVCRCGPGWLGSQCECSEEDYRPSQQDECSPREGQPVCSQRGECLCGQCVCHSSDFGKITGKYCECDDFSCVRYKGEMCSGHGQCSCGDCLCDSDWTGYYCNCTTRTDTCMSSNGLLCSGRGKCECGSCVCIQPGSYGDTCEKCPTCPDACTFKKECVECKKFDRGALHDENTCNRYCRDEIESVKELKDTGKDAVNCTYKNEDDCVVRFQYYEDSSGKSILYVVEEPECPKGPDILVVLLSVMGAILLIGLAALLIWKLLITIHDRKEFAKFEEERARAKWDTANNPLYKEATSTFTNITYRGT

| Structure (SMILES) | IC50 [nM] |
| --- | --- |
| CCOC(=O)C(CCOc1ccc(CCC(=O)NC2=NCCCN2)cc1)NC(=O)OCc1ccccc1 (stereo not drawn) [Example 3, Ethyl O—[4-[3-oxo-3-[(1.4,5,6-tetrahydro-2-pyrimidinyl)amino]-propyl]phenyl]-N [(phenylmethoxy)carbonyl]-homoserinate] | 403 |
| CC(C)OC(=O)C(CCOc1ccc(CCC(=O)NC2=NCCCN2)cc1)NC(=O)OCc1ccccc1 (stereo not drawn) [Example 4, (1-Methyl)ethyl O—[4-[3-oxo-3-[(1.4,5,6-tetrahydro-2-pyrimidinyl)amino]-propyl]phenyl]-N-[(phenylmethoxy)carbonyl]-homoserinate] | 5000 |
| O=C(CCc1ccc(OCC[C@H](NC(=O)OCC23CC4CC(CC(C4)C2)C3)C(=O)O)cc1)NC1=NCCCN1 [Example 5, O—[4-[3-oxo-3-[(1.4,5,6-tetrahydro-2-pyrimidinyl)amino]-propyl]phenyl]-N-[[(1-tricyclo[3.3.1.1^3,7]decyl)-methoxy]-carbonyl]-homoserine] | 12 |
| O=C(CCc1cccc(OCCCC(NC(=O)OCc2ccccc2)C(=O)O)c1)NC1=NCCCN1 (stereo not drawn) [Example 9, 5-[3-[3-oxo-3-[(1.4,5,6-tetrahydro-2-pyrimidinyl)amino]-propyl]phenoxy]-N-[(phenylmethoxy)carbonyl]-norvaline] | 110 |

Second part, the molecule after the results:

| IC50 [nM] | Structure (SMILES) |
| --- | --- |
| 31 | N=C(N)NC(=O)CCc1ccc(OCCC(NC(=O)OCc2ccccc2)C(=O)O)cc1 (stereo not drawn) [Example 1, O—[4-[3-[(aminoiminomethyl)amino]-3-oxopropyl]phenyl]-N-[(phenylmethoxy)carbonyl]-homoserine] |
| 7.3 | O=C(CCc1ccc(OCC[C@H](NC(=O)OCc2ccccc2)C(=O)O)cc1)NC1=NCCCN1 [Example 2, O—[4-[3-oxo-3-[(1,4,5,6-tetrahydro-2-pyrimidinyl)amino]-propyl]phenyl]-N-[(phenylmethoxy)carbonyl]-homoserine] |
| 3.3 | Cc1cc(C)c(S(=O)(=O)NC(CCOc2ccc(CCC(=O)NC3=NCCCN3)cc2)C(=O)O)c(C)c1 (stereo not drawn) [Example 6, O—[4-[3-oxo-3-[(1.4,5,6-tetrahydro-2-pyrimidinyl)amino]-propyl)phenyl]-N-[(2.4,6-trimethylphenyl)sulphonyl]-homoserine] |
| 2.5 | O=C(CCc1ccc(OCCC(NS(=O)(=O)c2cccc3ccccc23)C(=O)O)cc1)NC1=NCCCN1 (stereo not drawn) [Example 7, O—[4-[3-oxo-3-[(1.4,5,6-tetrahydro-2-pyrimidinyl)amino]-propyl]phenyl]-N-[(1-naphthalenyl)sulphonyl]-homoserine] |
| 13 | O=C(CCc1cccc(OCCC(NC(=O)OCc2ccccc2)C(=O)O)c1)NC1=NCCCN1 (stereo not drawn) [Example 8, O—[3-[3-oxo-3-[(1,4,5,6-tetrahydro-2-pyrimidinyl)amino]-propyl]phenyl]-N-[(phenylmethoxy)carbonyl]-homoserine;] |
